Experimental data taken from patent publication US4048299A, “Anticaries confectionaries and oral health products” (William Wrigley, Jr. Co., priority 1970, dated 1977).

Experiments:
[1] = tested on: Lactobacillus casei and Streptococcus sp. FA-1; test: Acid-production inhibition by broth-tube assay, 0.1 percent of compound; type: cell-based; conditions: Table XII; 0.1% of compound
Procedure: ^(a) Activity was measured by broth-tube assay to determine percent
(§1) acid-production inhibition obtained by Lactobacillus casei and
Streptococcus sp. FA-1 in the presence of 0.1 percent of compound.
^(a) Activity was measured by broth-tube assay to determine percent o
as §1
Streptococcus sp. FA-1 in the presence of 0.1% of compound. Symbols

[2] = tested on: Lactobacillus casei ATCC 4646; test: Acid production inhibition by aldehydes in product vehicles, broth-tube technique; type: cell-based; conditions: 1 to 5 percent aldehyde
Procedure: (§2) Other in vitro evaluations utilized a broth tube analysis of representative anticaries aldehydes incorporated in the vehicles of this invention against cultures of acid producing microorganisms normally present in the mouth. Standard laboratory procedures were utilized throughout to evaluate the acid production inhibition and growth inhibition over the incubation time of up to 24 hours.
(§3) (a)Measured by broth-tube technique.
(§4) In formulating Tables XIII - XIX representative aldehydes having anticaries activity were selected from those tested as summarized in Tables I - XII and incorporated in seven representative types of products. The products included dextrose and sucrose syrups, obtained commercially in food grades, and compressed candy, hard candy, mouthwash, toothpaste and toothpowder. The five latter products also employed food grade and reagent grade ingredients. These products were formulated by well-known and representative recipes for each type of product. The products were formed in batches of approximately 1 pound or 1 liter and contained all their normal constitutents. Aliquots of each products were blended with one of each of the representative aldehydes selected except in the case of hard candy.
(§5) Aliquots of the aldehyde incorporating sugar syrups, confectioneries, and mouthwash formulations were added directly to assay flasks and mixed or dissolved as required. Aqueous extracts of the aldehyde incorporated in toothpaste and toothpowder were prepared and aliquots of the filtrate were added to the assay flasks.
(§6) The assay flasks contained the necessary components for a normal growth response from the organisms employed, Lactobacillus casei ATCC 4646, originally a human oral isolate, Streptococcus spp. K1-R, human caries isolate, and a mixed oral microbial population obtained fresh from saliva on the morning prior to the initiation of each assay incubation period. The assay flask medium was dissolved in distilled water in which was added an equal volume of filter sterilized human saliva to yield a 50 percent saliva-medium combination. The medium contained all normal ingredients such as yeast extract, proteose peptone number 3 (a proprietary formula of Difco Laboratories, Detroit, Michigan) monopotassium phosphate, Tween 80 (polyoxethylene sorbitan monoleate) and water, except a carbon source. This was supplied by the aliquot of the sucrose syrup, dextrose syrup, sucrose in the compressed candy tablet and sucrose in the hard candy product. In addition, an aliquot of sucrose solution concentrate was added to the assay flask as a carbon source for evaluation of mouthwash, toothpaste, and toothpowder vehicles.
(§7) The lower aldehydes such as glycolaldehyde, crystalline dimer; pyruvaldehyde, aqueous syrup; d,1-glyceraldehyde solution and crystalline dimer; and glutaraldehyde, employed as a 50 percent aqueous solution, are water soluble and were employed directly either as powders or aqueous solutions. The C8 to C12, longer chain aliphatic aldehydes, of which decyl and dodecyl (lauric) were selected as representative, are oil soluble and are prepared and added to the products as emulsions with four parts of Tween 20, polyoxethylene sorbitan monolaurate. The aldehyde concentrations in the products were randomly chosen between 1 to 5 percent by weight. Limits for the concentrations were selected to coincide with the data presented in Tables I - XII in order to verify that the anticaries activity of the aldehydes in the product vehicles tested was equivalent to the activity previously established for the aldehydes alone.

Streptococcus spp. KI-R [3] = test: as above; type: cell-based; conditions: 1 to 5 percent aldehyde
Procedure: as §2, §3, §4, §5, §6, §7

[4] = tested on: Mixed human oral microorganisms; test: as above; type: cell-based; conditions: 1 to 5 percent aldehyde
Procedure: as §2, §3, §4, §5, §6, §7

[5] = tested on: Lactobacillus casei ATCC 4646; test: Growth inhibition by aldehydes in product vehicles, pour-plate technique; type: cell-based; conditions: 1 to 5 percent aldehyde
Procedure: as §2
(§8) (b)Measured by pour-plate technique.
as §4, §5, §6, §7

Streptococcus spp. KI-R [6] = test: as above; type: cell-based; conditions: 1 to 5 percent aldehyde
Procedure: as §2, §8, §4, §5, §6, §7

[7] = tested on: Mixed human oral microorganisms; test: as above; type: cell-based; conditions: 1 to 5 percent aldehyde
Procedure: as §2, §8, §4, §5, §6, §7

oral microorganisms = test: Comparison of activity against oral microorganisms in vitro; conditions: in words, summary of tables
Procedure: Two types of in vitro evaluations of the anticaries agents of this invention were conducted. […] The data was compiled through well-known broth tube analysis techniques.

[8] = in compressed candy tablet, 2 h incubation
[9] = in compressed candy tablet, 5 h incubation
[10] = in compressed candy tablet, 24 h incubation
[11] = in dextrose syrup, 2 h incubation
[12] = in dextrose syrup, 5 h incubation
[13] = in dextrose syrup, 24 h incubation
[14] = in sucrose syrup, 2 h incubation
[15] = in sucrose syrup, 5 h incubation
[16] = in sucrose syrup, 24 h incubation
[17] = in tooth powder (aqueous extract), 2 h incubation
[18] = in tooth powder (aqueous extract), 5 h incubation
[19] = in tooth powder (aqueous extract), 24 h incubation
[20] = in toothpaste (aqueous extract), 2 h incubation
[21] = in toothpaste (aqueous extract), 5 h incubation
[22] = in toothpaste (aqueous extract), 24 h incubation

## O=CCCCC=O [Glutaraldehyde]
[1]
  Activity, Acid-Production Inhibition, %: ++++ (99 to 100)
[2]; [8]
  Acid Production Inhibition: 0 Per Cent
[2]; [9]
  Acid Production Inhibition: 33 Per Cent
[2]; [10]
  Acid Production Inhibition: 81 Per Cent
[2]; [11]
  Acid Production Inhibition: 76 Per Cent
[2]; [12]
  Acid Production Inhibition: 70 Per Cent
[2]; [13]
  Acid Production Inhibition: 29 Per Cent
[2]; [14]
  Acid Production Inhibition: 100 Per cent
[2]; [15]
  Acid Production Inhibition: 75 Per cent
[2]; [16]
  Acid Production Inhibition: 50 Per cent
[2]; [17]
  Acid Production Inhibition: 0 Per cent
[2]; [18]
  Acid Production Inhibition: 33 Per cent
[2]; [19]
  Acid Production Inhibition: 21 Per cent
[2]; [20]
  Acid Production Inhibition: 80 Per cent
[2]; [21]
  Acid Production Inhibition: 80 Per cent
[2]; [22]
  Acid Production Inhibition: 50 Per cent
Streptococcus spp. KI-R [3]; [8]
  Acid Production Inhibition: 100 Per Cent
Streptococcus spp. KI-R [3]; [9]
  Acid Production Inhibition: 100 Per Cent
Streptococcus spp. KI-R [3]; [10]
  Acid Production Inhibition: 100 Per Cent
Streptococcus spp. KI-R [3]; [11]
  Acid Production Inhibition: 70 Per Cent
Streptococcus spp. KI-R [3]; [12]
  Acid Production Inhibition: 93 Per Cent
Streptococcus spp. KI-R [3]; [13]
  Acid Production Inhibition: 0 Per Cent
Streptococcus spp. KI-R [3]; in mouthwash, 2 h incubation
  Acid Production Inhibition: 0 Per cent
Streptococcus spp. KI-R [3]; in mouthwash, 5 h incubation
  Acid Production Inhibition: 0 Per cent
Streptococcus spp. KI-R [3]; in mouthwash, 24 h incubation
  Acid Production Inhibition: 99 Per cent
Streptococcus spp. KI-R [3]; [14]
  Acid Production Inhibition: 100 Per cent
Streptococcus spp. KI-R [3]; [15]
  Acid Production Inhibition: 83 Per cent
Streptococcus spp. KI-R [3]; [16]
  Acid Production Inhibition: 0 Per cent
Streptococcus spp. KI-R [3]; [17]
  Acid Production Inhibition: 0 Per cent
Streptococcus spp. KI-R [3]; [18]
  Acid Production Inhibition: 0 Per cent
Streptococcus spp. KI-R [3]; [19]
  Acid Production Inhibition: 0 Per cent
Streptococcus spp. KI-R [3]; [20]
  Acid Production Inhibition: 100 Per cent
Streptococcus spp. KI-R [3]; [21]
  Acid Production Inhibition: 100 Per cent
Streptococcus spp. KI-R [3]; [22]
  Acid Production Inhibition: 84 Per cent
[4]; [8]
  Acid Production Inhibition: 100 Per Cent
[4]; [9]
  Acid Production Inhibition: 100 Per Cent
[4]; [10]
  Acid Production Inhibition: 0 Per Cent
[4]; [11]
  Acid Production Inhibition: 23 Per Cent
[4]; [12]
  Acid Production Inhibition: 81 Per Cent
[4]; [13]
  Acid Production Inhibition: 16 Per Cent
[4]; in mouthwash, 2 h incubation
  Acid Production Inhibition: 0 Per cent
[4]; in mouthwash, 5 h incubation
  Acid Production Inhibition: 100 Per cent
[4]; in mouthwash, 24 h incubation
  Acid Production Inhibition: 91 Per cent
[4]; [14]
  Acid Production Inhibition: 100 Per cent
[4]; [15]
  Acid Production Inhibition: 59 Per cent
[4]; [16]
  Acid Production Inhibition: 0 Per cent
[4]; [17]
  Acid Production Inhibition: 67 Per cent
[4]; [18]
  Acid Production Inhibition: 95 Per cent
[4]; [19]
  Acid Production Inhibition: 45 Per cent
[4]; [20]
  Acid Production Inhibition: 0 Per cent
[4]; [21]
  Acid Production Inhibition: 0 Per cent
[4]; [22]
  Acid Production Inhibition: 0 Per cent
[5]; [8]
  Growth Inhibition: N.S.
[5]; [9]
  Growth Inhibition: N.S.
[5]; [10]
  Growth Inhibition: 99.5 Per Cent
[5]; [11]
  Growth Inhibition: N.S.
[5]; [12]
  Growth Inhibition: N.S.
[5]; [13]
  Growth Inhibition: 90 Per Cent
[5]; [14]
  Growth Inhibition: N.S.
[5]; [15]
  Growth Inhibition: N.S.
[5]; [16]
  Growth Inhibition: N.S.
[5]; [17]
  Growth Inhibition: N.S.
[5]; [18]
  Growth Inhibition: N.S.
[5]; [19]
  Growth Inhibition: N.S.
[5]; [20]
  Growth Inhibition: N.S.
[5]; [21]
  Growth Inhibition: N.S.
[5]; [22]
  Growth Inhibition: 0 Per cent
Streptococcus spp. KI-R [6]; [8]
  Growth Inhibition: N.S.
Streptococcus spp. KI-R [6]; [9]
  Growth Inhibition: N.S.
Streptococcus spp. KI-R [6]; [10]
  Growth Inhibition: N.S.
Streptococcus spp. KI-R [6]; [11]
  Growth Inhibition: N.S.
Streptococcus spp. KI-R [6]; [12]
  Growth Inhibition: 99.96 Per Cent
Streptococcus spp. KI-R [6]; [13]
  Growth Inhibition: 0 Per Cent
Streptococcus spp. KI-R [6]; in mouthwash, 2 h incubation
  Growth Inhibition: 100 Per cent
Streptococcus spp. KI-R [6]; in mouthwash, 5 h incubation
  Growth Inhibition: 99.999 Per cent
Streptococcus spp. KI-R [6]; in mouthwash, 24 h incubation
  Growth Inhibition: 100 Per cent
Streptococcus spp. KI-R [6]; [14]
  Growth Inhibition: N.S.
Streptococcus spp. KI-R [6]; [15]
  Growth Inhibition: > 99 Per cent
Streptococcus spp. KI-R [6]; [16]
  Growth Inhibition: 90 Per cent
Streptococcus spp. KI-R [6]; [17]
  Growth Inhibition: N.S.
Streptococcus spp. KI-R [6]; [18]
  Growth Inhibition: N.S.
Streptococcus spp. KI-R [6]; [19]
  Growth Inhibition: N.S.
Streptococcus spp. KI-R [6]; [20]
  Growth Inhibition: N.S.
Streptococcus spp. KI-R [6]; [21]
  Growth Inhibition: N.S.
Streptococcus spp. KI-R [6]; [22]
  Growth Inhibition: N.S.
[7]; [8]
  Growth Inhibition: 97.3 Per Cent
[7]; [9]
  Growth Inhibition: 99.8 Per Cent
[7]; [10]
  Growth Inhibition: N.S.
[7]; [11]
  Growth Inhibition: 92.5 Per Cent
[7]; [12]
  Growth Inhibition: 90 Per Cent
[7]; [13]
  Growth Inhibition: N.S.
[7]; in mouthwash, 2 h incubation
  Growth Inhibition: 100 Per cent
[7]; in mouthwash, 5 h incubation
  Growth Inhibition: 100 Per cent
[7]; in mouthwash, 24 h incubation
  Growth Inhibition: 99.9 Per cent
[7]; [14]
  Growth Inhibition: 90 Per cent
[7]; [15]
  Growth Inhibition: 93 Per cent
[7]; [16]
  Growth Inhibition: N.S.
[7]; [17]
  Growth Inhibition: N.S.
[7]; [18]
  Growth Inhibition: 96.6 Per cent
[7]; [19]
  Growth Inhibition: N.S.
[7]; [20]
  Growth Inhibition: 0 Per cent
[7]; [21]
  Growth Inhibition: N.S.
[7]; [22]
  Growth Inhibition: N.S.
other
  Solubility: water soluble

## CC(O)C=O (stereo not drawn) [α-Hydroxypropionaldehyde]
Oral microorganisms
  Anticaries activity in vitro: excellent anticaries activity
